The text below walks through data of patent EP2646421B1, “7-NITRO-5-PHENYL-1-(PYRROLIDIN-1-YLMETHYL)-1H-BENZO[E][1,4]DIAZEPIN-2(3H)-ONE AND OTHER BENZODIAZEPINE DERIVATIVES” (Pignataro, Giuseppe, priority 2010, dated 2012).

SMILES strings stand for the structures.

The target in experiment [1] is T1, NCX2 (Rattus norvegicus, UniProt P48768).
T1 construct: expressed in transfected cells
The experiment is described as follows: Fura-2 AM single-cell microfluorimetry, BHK-NCX2 cells. Conditions: 10 nM (Fig. 2). In kind it is cell-based. The protocol:
(§1) The activity of NCX was established by means of three different subclones of baby hamsted kidney (BHK) cells that were stably transfected with one of each NCX isoforms, named BHK-NCX1, BHK-NCX2 and BHK-NCX3. These cell lines were grown on plastic dishes in a mix of DMEM and Ham's F12 media (1:1) (Gibco, Invitrogen, MI, Italy) supplemented with 5% fetal bovine serum, 100 U/ml penicillin, and 100 µg/ml streptomycin (Sigma, St. Louis, Missouri, USA). Cells were cultured in a humidified 5% CO2 atmosphere and at the temperature of 37°C.
NCX activity has been measured considering the variation of intracellular concentrations of Ca^2+ ions ([Ca^2+]i) due to its activation by means of single-cell microfluorimetry. […] In both cases, this probe will produce an emission at 510 nm; the ratio between the two emission relative to 340 and 380 excitation allow to quantify [Ca^2+]i in the time considering the calibration curve previously performed. […]
Briefly, BHK cells wild type and/or BHK trasnsfected with NCX mutants, grown on glass coverslips, were loaded with Fura-2 acetoxymethyl ester (Fura-2AM) (10 µM) for 30 minutes at 37°C in normal Krebs solution containing the following (in mM): 5.5 KCI, 160 NaCl, 1.2 MgCl2, 1.5 CaCl2, 10 glucose, and 10 Hepes-NaOH, pH 7.4. […] Fura-2 fluorescence intensity was measured every 3 seconds. […]

Experiment [2] has as its target T1, NCX2. The experiment in a line: Patch-clamp electrophysiology (whole-cell NCX currents), BHK-NCX2 cells. In kind it is cell-based. As to conditions: 10 nM, 10 minutes. The protocol:
To further investigate the effects of this compound on the Na^+/Ca^2+ exchanger activity, we performed electrophysiological experiments on BHK cells stably transfected with each of NCX isoforms (named BHK-NCX1, BHK-NCX2 and BHK-NCX3).
as §1
NCX currents (/NCX) was recorded from BHK wild-type and BHK stably transfected cells with NCX1, NCX2, and NCX3 and all each mutated of single isoforrms by patch-clamp technique in whole-cell configuration. […] Data were acquired and analyzed by use of pClamp software (version 9.0, Molecular Devices). In brief, /NCX was recorded starting from a holding potential of -60 mV up to a short-step depolarization at +60 mV (60 ms) (He et al., 2003; Xiao et al., 2004). […] The current recorded in the descending portion of the ramp (from +60 to -120 mV) was used to plot the current-voltage (I-V) relation curve. […]
A general note: In patch-clamp work, channel activity is measured electrically.

T1 sequence (P48768 21-921): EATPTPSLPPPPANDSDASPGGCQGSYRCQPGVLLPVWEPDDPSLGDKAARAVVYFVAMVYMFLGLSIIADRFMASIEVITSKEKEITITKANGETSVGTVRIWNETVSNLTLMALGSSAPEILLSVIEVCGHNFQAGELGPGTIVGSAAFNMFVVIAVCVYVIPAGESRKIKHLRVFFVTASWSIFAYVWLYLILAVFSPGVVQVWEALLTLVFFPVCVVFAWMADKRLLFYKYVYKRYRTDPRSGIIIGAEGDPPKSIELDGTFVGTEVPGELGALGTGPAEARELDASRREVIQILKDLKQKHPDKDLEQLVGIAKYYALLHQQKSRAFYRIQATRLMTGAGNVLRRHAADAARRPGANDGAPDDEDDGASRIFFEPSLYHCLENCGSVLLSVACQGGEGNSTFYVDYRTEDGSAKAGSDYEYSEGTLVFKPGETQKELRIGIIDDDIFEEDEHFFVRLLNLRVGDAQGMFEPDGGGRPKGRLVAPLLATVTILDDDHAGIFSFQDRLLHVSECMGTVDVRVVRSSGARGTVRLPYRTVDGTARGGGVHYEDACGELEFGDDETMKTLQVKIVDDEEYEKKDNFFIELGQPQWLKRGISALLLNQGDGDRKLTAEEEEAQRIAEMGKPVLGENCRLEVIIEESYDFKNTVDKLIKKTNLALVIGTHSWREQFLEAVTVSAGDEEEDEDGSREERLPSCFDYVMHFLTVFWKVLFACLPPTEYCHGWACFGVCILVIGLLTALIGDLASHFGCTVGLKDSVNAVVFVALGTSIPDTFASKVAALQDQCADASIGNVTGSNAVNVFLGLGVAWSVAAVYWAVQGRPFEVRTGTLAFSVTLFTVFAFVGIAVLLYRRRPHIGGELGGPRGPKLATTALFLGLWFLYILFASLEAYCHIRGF

Consider `O=C1CN=C(c2ccccc2)c2cc([N+](=O)[O-])ccc2N1CN1CCCC1` [neurounina-1, 7-nitro-5-phenyl-1-(pyrrolidin-1-ylmethyl)-1H-benzo[e][1,4]diazepin-2(3H)-one], for which the “increased reverse mode activity of NCX2” value on NCX2 [1] is listed as 40%. The “increased forward and reverse activity of NCX2” value at NCX2 [2] turned out to be 30%.
